Among the test systems are 786-0; A498; ACHN; CAKI-1; DU-145; M14; MCF7; MDA-MB-231; MDA-MB-435; MOLT-4; NCI-H23; NCI/ADR-RES; PC-3; TK-10; DMS-114; DMS-273; KM-20L2; M19-MEL; DLD-1.
What all share (experiment): inhibition of tumour cell growth, NCI panel, 48 h

15 compounds from ChEMBL document CHEMBL1201862, “PubChem BioAssay data set” (2004) can be followed below.

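Growth conditions: 96-well plates. Treatment: test compound, 48 hours, 5 concentrations. Analysis: linear interpolation between bracketing concentrations; unreached endpoints set to highest concentration. At the GI50, growth is halved.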 The source made the active and inactive calls. No stated cut-off is given here; in the data, active = GI50 up to about 1.1 µM and inactive = higher. Non-standard residues stand in square brackets, D forms with d. Residues, ends and D or L forms follow the SMILES beside them. ξ: configuration not given here. Pentanoyl(2-O,4-OH,5-Cl) = O=C(O)C(O)CC(O)CCl; Ile(3ξ) = CCC(C)[C@H](N)C(=O)O; NMeV = CN[C@H](C(=O)O)C(C)C; NMeA = CN[C@@H](C)C(=O)O; βAla = NCCC(=O)O

Turning to `Nc1ccc(N(S(=O)(=O)c2ccccc2)S(=O)(=O)c2ccccc2)c(Cl)c1`, the GI50 in the assay with 786-0 was 81.1 µM (inactive); in the assay on A498, 25.2 µM (inactive); in the assay with ACHN, 66.5 µM (inactive); in the assay with CAKI-1, 47.3 µM (inactive); in the assay with DU-145 it was 95.7 µM (inactive); with M14 it was 77.6 µM (inactive). Further, the GI50 is 39.3 µM (inactive) in the assay on MCF7; 98.2 µM (inactive) in the assay with MDA-MB-231; 15.1 µM (inactive) with MDA-MB-435; 14.2 µM (inactive) in the assay with MOLT-4; 55.8 µM (inactive) in the assay on NCI-H23; 40.2 µM (inactive) in the assay with NCI/ADR-RES. The results for the GI50 in the assay with PC-3 and in the assay on TK-10 were 35.6 µM (inactive) and 55.1 µM (inactive), respectively.
`N#Cc1c(NC(=S)NC(=O)c2ccccc2)nc2c(c1-c1ccccc1)CCCC2`: the GI50 in the assay on CAKI-1 was > 100 µM (inactive); with DU-145, > 100 µM (inactive); in the assay with M14, > 100 µM (inactive); in the assay on MCF7, 58.9 µM (inactive); in the assay with MDA-MB-231 it was 93.8 µM (inactive); in the assay on MDA-MB-435, > 100 µM (inactive). In addition, the GI50 in the assay with MOLT-4 is > 100 µM (inactive); in the assay on NCI-H23, > 100 µM (inactive); in the assay on NCI/ADR-RES, 51.6 µM (inactive); with PC-3 it was > 100 µM (inactive); with TK-10, > 100 µM (inactive).
`O=C1CCCCC2N(C(c3ccccc3)c3ccccc3)CC[C@@]12c1ccccc1.O=C1CCCC[C@H]2N(C(c3ccccc3)c3ccccc3)CC[C@@]12c1ccccc1` (stereo partly drawn): the GI50 was > 10 µM (inactive) in the assay on A498; 8.87 µM (inactive) with ACHN; 4.83 µM (inactive) in the assay on CAKI-1; 5.19 µM (inactive) in the assay with DMS-114; > 10 µM (inactive) with DMS-273; > 10 µM (inactive) in the assay on KM-20L2. Also, the GI50 in the assay on M14 was > 10 µM (inactive); in the assay with M19-MEL, > 10 µM (inactive); in the assay on MOLT-4, 3.06 µM (inactive); in the assay on NCI-H23, 4.8 µM (inactive); with TK-10, > 10 µM (inactive).
As to `CCC1OC2C(CC=C(C)C)=C3OC(C)(O)C(C)(CC)C(OC(C)=O)C3=C3OC(=O)C=C1C32` (stereo not drawn), the GI50 with 786-0 is 37.7 µM (inactive); in the assay with A498 it was 36.7 µM (inactive); in the assay on ACHN, 39.6 µM (inactive); in the assay with CAKI-1, 28.2 µM (inactive); with DU-145 it was 39.6 µM (inactive); in the assay with M14, 30.5 µM (inactive). In addition, the GI50 with MCF7 was 30.1 µM (inactive); in the assay with MDA-MB-231 it was 19.8 µM (inactive); in the assay with MDA-MB-435, 21.3 µM (inactive); in the assay on MOLT-4, 22.7 µM (inactive); in the assay on NCI-H23, 27.7 µM (inactive); with NCI/ADR-RES, 29.6 µM (inactive). Also, the GI50 in the assay on PC-3 is 38.8 µM (inactive); in the assay with TK-10 it was 34.4 µM (inactive).
`CC(C)(C)/N=c1/n(C(C)(C)C)oc(=O)n1C(C)(C)C`: the GI50 in the assay with 786-0, in the assay on A498, in the assay on ACHN, in the assay on CAKI-1, in the assay with M14 and in the assay on MCF7 was > 100 µM (inactive) each time. In addition, the GI50 is > 100 µM (inactive) with MDA-MB-231; > 100 µM (inactive) in the assay on MOLT-4; 81.1 µM (inactive) in the assay with NCI-H23; > 100 µM (inactive) in the assay with NCI/ADR-RES; > 100 µM (inactive) in the assay with PC-3; > 100 µM (inactive) in the assay with TK-10.
Turning to `Cc1nn(C)c2c1C(=O)N(C)CC(=O)N2C`, the GI50 in the assay with 786-0, with A498, in the assay with ACHN, in the assay on CAKI-1, in the assay with DU-145 and in the assay with M14 was > 100 µM (inactive) throughout. In addition, the GI50 in the assay on MCF7, in the assay on MDA-MB-435, in the assay with MOLT-4, in the assay with NCI-H23, in the assay on PC-3 and in the assay on TK-10 was > 100 µM (inactive) throughout.
`CN(C)c1ccc(C2CC(=O)CC(c3ccc(N(C)C)cc3)C23C(=O)NC(=O)NC3=O)cc1` (stereo not drawn): the GI50 was 12.4 µM (inactive) in the assay with 786-0; > 25 µM (inactive) with ACHN; > 25 µM (inactive) in the assay on CAKI-1; > 25 µM (inactive) in the assay with DU-145; > 25 µM (inactive) in the assay on M14; > 25 µM (inactive) in the assay with MCF7. For the same compound, the GI50 with MDA-MB-231 was > 25 µM (inactive); in the assay with MDA-MB-435, > 25 µM (inactive); with MOLT-4 it was 0.0025 µM (active); with NCI-H23, > 25 µM (inactive); in the assay with NCI/ADR-RES it was > 25 µM (inactive); in the assay on PC-3, > 25 µM (inactive). Moreover, in the assay on TK-10, the GI50 is > 25 µM (inactive).
As to `Cc1c(Cl)c(=O)oc2cc(OCC(=O)c3ccccc3)ccc12`, the GI50 in the assay on A498, in the assay with ACHN, in the assay with CAKI-1, with DU-145, in the assay on M14 and in the assay with MCF7 was > 100 µM (inactive) each time. Also, the GI50 in the assay on MDA-MB-231 is 29.4 µM (inactive); with MDA-MB-435 it was > 100 µM (inactive); with MOLT-4 it was > 100 µM (inactive); with NCI-H23, > 100 µM (inactive); in the assay on NCI/ADR-RES, > 100 µM (inactive); in the assay with PC-3 it was > 100 µM (inactive). Besides, in the assay with TK-10, the GI50 is 92 µM (inactive).
For `N#CCCC(CCC#N)(CCC#N)NO`, the GI50 with 786-0, with ACHN, in the assay with CAKI-1, in the assay on DU-145, with M14 and in the assay on MCF7 was > 100 µM (inactive) each time. Besides, the GI50 in the assay on MDA-MB-231, in the assay with MDA-MB-435, in the assay with NCI-H23, in the assay on NCI/ADR-RES, in the assay with PC-3 and with TK-10 was > 100 µM (inactive) each time.
Take `O=C/C(=C1/C=Cc2cc([N+](=O)[O-])ccc2S1)c1ccccc1`: the GI50 in the assay on 786-0, with A498, in the assay with ACHN, in the assay on CAKI-1, in the assay on DU-145 and with M14 was > 100 µM (inactive) in each case. In addition, the GI50 with MCF7, in the assay with MDA-MB-231, in the assay on MDA-MB-435, in the assay on MOLT-4, in the assay on NCI-H23 and in the assay with NCI/ADR-RES was > 100 µM (inactive) each time. Further, the GI50 with PC-3 and in the assay with TK-10 was > 100 µM (inactive) throughout.
On to `COc1ccc(C2c3cc4c(cc3OC(NCCO)C2C)OCO4)cc1` (stereo not drawn), for which the GI50 in the assay on A498 is 17.3 µM (inactive); in the assay with ACHN it was 29.6 µM (inactive); in the assay on CAKI-1 it was 23.5 µM (inactive); with DU-145 it was 29.4 µM (inactive); in the assay on M14, 26.4 µM (inactive); in the assay with MCF7, 27.3 µM (inactive). For the same compound, the GI50 is 26.9 µM (inactive) in the assay on MDA-MB-231; 23.6 µM (inactive) with MDA-MB-435; 16.6 µM (inactive) with MOLT-4; 35.8 µM (inactive) with NCI-H23; 23.4 µM (inactive) in the assay on PC-3; 23.8 µM (inactive) in the assay with TK-10.
Consider `C=CCC12CC(=O)C=C1CCC1(C2)OCCO1` (stereo not drawn), for which the GI50 in the assay on 786-0, in the assay on A498, with ACHN, in the assay with CAKI-1, in the assay on DLD-1 and with DMS-273 was > 100 µM (inactive) throughout. The GI50 with KM-20L2, in the assay on M14, in the assay on M19-MEL, in the assay with MOLT-4 and in the assay on TK-10 was > 100 µM (inactive) each time.
As for `CCOC(=O)C(=Cn1c(=S)[nH]c2ccc([N+](=O)[O-])cc21)C(=O)OCC`, the GI50 with 786-0, with A498, in the assay with ACHN, in the assay on CAKI-1, with DU-145 and with M14 was > 100 µM (inactive) throughout. Further, the GI50 with MCF7, in the assay on MDA-MB-231, in the assay on MDA-MB-435, with MOLT-4, in the assay with NCI-H23 and in the assay on NCI/ADR-RES was > 100 µM (inactive) in each case. Further, the GI50 in the assay with PC-3 and with TK-10 was > 100 µM (inactive) throughout.
As to `O=C1C=C(Sc2ccccc2)c2nccc3c2c1nc1ccccc13`, the GI50 was 16.9 µM (inactive) with 786-0; 19.3 µM (inactive) in the assay on ACHN; 44.2 µM (inactive) in the assay with CAKI-1; 40.9 µM (inactive) in the assay on DU-145; 13.3 µM (inactive) in the assay on M14; 14.9 µM (inactive) with MCF7. Moreover, the GI50 in the assay on MDA-MB-231 was 20 µM (inactive); with MDA-MB-435, 16.9 µM (inactive); in the assay with MOLT-4 it was 4.27 µM (inactive); in the assay on NCI-H23, 23.6 µM (inactive); in the assay on NCI/ADR-RES, 21.8 µM (inactive); with PC-3, 13.3 µM (inactive). Also, the GI50 in the assay with TK-10 was 31.1 µM (inactive).
On to `CCC(C)[C@@H]1NC(=O)[C@@H]2CCCN2C(=O)C(CC(O)CCl)OC(=O)CCNC(=O)[C@H](C)N(C)C(=O)[C@H](C(C)C)N(C)C1=O` (stereo partly drawn) (cyclo([Ile(3ξ)][NMeV][NMeA][βAla][Pentanoyl(2-O,4-OH,5-Cl)]P)), for which the GI50 is > 29.1 µM (inactive) in the assay with A498; > 100 µM (inactive) in the assay on ACHN; > 100 µM (inactive) in the assay on CAKI-1; > 100 µM (inactive) in the assay on DU-145; 0.46 µM (active) in the assay on M14; > 39.8 µM (inactive) in the assay on MCF7. Besides, the GI50 with MDA-MB-231 was > 47.5 µM (inactive); with MDA-MB-435, > 100 µM (inactive); with NCI-H23 it was > 100 µM (inactive); with NCI/ADR-RES, > 100 µM (inactive); in the assay with PC-3 it was 74.6 µM (inactive); in the assay with TK-10, > 100 µM (inactive).
